Experiment: in vitro
Settings: human, hela cells

SMILES | viability at 28.5 h, 10 µM
CS(=O)(=O)c1ccc(-c2ccc3c(c2)OCCN(C2CCN(C(=O)Oc4ccccc4)CC2)C3)cc1 [CBK169259] | 79.9%

Same assay, conditions: human, hela cells, % viability

SMILES | viability at 28.5 h, 10 µM
CC(C)c1nn(CN(C)Cc2ccccc2)c(=S)[nH]1 [CBK295166] | 102%
COC(=O)c1ccccc1NC(=O)Cn1cncc1-c1ccc([N+](=O)[O-])cc1 [CBK266741] | 91.9%
CC(C)(C)c1ccc(C(=O)NC(=S)Nc2ccc(O)c(-c3nc4cc(Cl)ccc4o3)c2)cc1 [CBK264169] | 88%
CCOC(=O)N1CCC(NS(=O)(=O)c2cc(Cl)sc2Cl)CC1 [CBK045462] | 86.7%
Cn1c(CCC(=O)Nc2c[nH]c3ccccc23)nc2ccccc21 [CBK282507] | 85.9%
Clc1ccc(-c2cc(CN3CCCCC3)no2)cc1Cl [CBK018435] | 102%
CC(C)C(=O)Nc1nc2c([nH]c(=O)n2[C@H]2C[C@@H](O)[C@@H](CO)O2)c(=O)[nH]1 [CBK201202] | 98.4%
O=C(CCn1c(C(F)F)cc2cccnc21)NCc1ccc(F)cc1 [CBK285067] | 102%
COc1ccnc(N2CCN(C(=O)c3cnn(C)c3C3CC3)CC2)n1 [CBK304900] | 85.3%
Cc1ccc2c(c1)C(=O)NCC1(CCN(Cc3ccccc3)CC1)O2 [CBK285048] | 104%
O=C(Nc1cccnc1)c1ccc(NC(=O)C2OCCc3ccccc32)cc1 (stereo not shown) [CBK269963] | 86.6%
O=C(O)c1cc(S(=O)(=O)Nc2ccc(OCc3ccccc3)cc2)ccc1Br [CBK297098] | 113%
CN(CC(=O)O)C(=O)c1ccc(Oc2cccc(Br)c2)nc1 [CBK306485] | 90.7%
CCn1cc(-c2cncn2CCOc2ccc(C)cc2)cn1 [CBK281623] | 88.5%
CCCC(=O)Nc1ccc(N2CCNCC2)c2ccccc12 [CBK024619T] | 88.4%
Cc1cc(=O)n2ccc(CN3CCOCC3)c(O)c2n1 [CBK262899C] | 114%
O=C(CCc1ccc(O)c(O)c1)NNC(=S)Nc1ccc(F)cc1F [CBK267041] | 114%
Cc1cc(Cl)cc(Cl)c1OCCCc1c(C)n[nH]c1C [CBK025733C] | 76.9%
O=C(COc1ccc(S(=O)(=O)N2CCOCC2)cc1)N1CCc2ccccc2C1 [CBK268350] | 92.1%
COc1ccccc1N1CCN(CCC(=O)Nc2cccc(F)c2)CC1 [CBK264254C] | 92.8%
COc1ccccc1NC(=O)CNC(=O)c1ccc([N+](=O)[O-])cc1 [CBK268657] | 91.9%
COc1ccc(C2(C(=O)Nc3ccc(-c4ccccc4OC)cc3)CCOCC2)cc1 [CBK285710] | 89.5%

SMILES | viability at 28.5 h, 10 µM
C[C@@H](Cn1nnc2ccccc21)NC(=O)Cc1ccccc1F [CBK282305] | 86.1%
O=C(c1ccoc1)N1CCC2(CCCN(Cc3c(F)cccc3F)C2)C1 (stereo not shown) [CBK132806] | 95.1%
CN1CCC(=NNC(=O)C(=O)NCc2ccco2)CC1 [CBK262341] | 84.6%
N#Cc1cccnc1N1CCC(NC(=O)c2cccnc2)CC1 [CBK304283] | 103%
O=C(CCC(=O)c1ccccc1)Nc1cc2ccccc2c(N2CCNCC2)n1 [CBK028418T] | 106%
COCCN1CCOC2(CCN(C(=O)c3ccc(C)cc3)CC2)C1c1ccccc1OC (stereo not shown) [CBK112657C] | 100%
Cn1ccnc1C(NC(=O)[C@@H]1C[C@@H]2C=C[C@H]1C2)c1ccc(F)cc1 (stereo partly shown) [CBK281483] | 95.5%
O=C(O)c1sc2ncccc2c1NS(=O)(=O)c1ccc(C(F)(F)F)cc1[N+](=O)[O-] [CBK050647] | 118%
CS(=O)(=O)N1CCC(Oc2nccnc2OCc2ccc(Cl)c(Cl)c2)CC1 [CBK144910] | 90.5%
O=C(CSc1ccc2nnc(-c3ccc(F)cc3)n2n1)N1CCCCC1 [CBK287520] | 98.4%
CCCc1nn(CC(=O)NC2CC2)c(=O)c2cc3ccsc3n12 [CBK284146] | 85.3%
O=C(O)C(Cc1c[nH]c2ccccc12)NCC1CCCCC1 (stereo not shown) [CBK287238] | 110%
O=C(O)c1ccc(/C=N/N2CCN(Cc3ccccc3)CC2)cc1 [CBK265344] | 108%
CCOCCN1C[C@@H](C(F)(F)F)[C@H](C(=O)O)C1 [CBK287033] | 91.9%
O=C(O)CCNS(=O)(=O)c1ccc2[nH]c(=O)[nH]c2c1 [CBK266906] | 91%
Cc1ccc(C(=O)NCCCc2ccc(Cl)cc2)c(=O)n1C [CBK281567] | 80.4%
COc1cc(-c2cnc(N)c(N3CCN(CCN(C)C)CC3)n2)cc(OC)c1OC [CBK063488] | 94.4%
CCOc1ccccc1-c1ccccc1NC(=O)c1ccc(-n2nc(C)cc2C)cc1 [CBK285845] | 54.1%
O=C(O)CCC(=O)N(Cc1ccco1)C1CC(=O)N(c2ccc(F)cc2)C1=O (stereo not shown) [CBK287059] | 92.1%
COc1ccc(S(=O)(=O)N2CCCC(C(=O)NCc3ccc4c(c3)OCO4)C2)cc1Cl (stereo not shown) [CBK268230] | 89.1%
Cc1ccc(N2CCN(S(=O)(=O)c3ccc(I)cc3)CC2)c(C)c1 [CBK098562] | 91.7%
CC(C)(CSc1ccccn1)NS(=O)(=O)c1ccccc1 [CBK268513] | 102%

SMILES | viability at 28.5 h, 10 µM
N#Cc1ccc(-c2cccs2)nc1SCC(=O)Nc1ccc([N+](=O)[O-])cc1 [CBK066850] | 87.5%
O=C(CCN1C(=O)C2C3CCC(C3)C2C1=O)OCC(=O)c1ccc(-c2ccccc2)cc1 (stereo not shown) [CBK265113] | 95.1%
O=C(CN1CCCCC1)Nc1ccc(S(=O)(=O)N2CCOCC2)cc1 [CBK265577] | 90.2%
CC(OC(=O)c1ccc2nccnc2c1)c1cccc([N+](=O)[O-])c1 (stereo not shown) [CBK297901] | 78.5%
Cc1cc(=O)oc2cc(OC(C)C(=O)Nc3sc4c(c3C(N)=O)CCCC4)ccc12 (stereo not shown) [CBK268050] | 94.6%
O=C(O)[C@H](Cc1ccccc1)Nc1ncnc2[nH]cnc12 [CBK287090] | 87%
CC1=Nc2ccc(Cl)cc2C(C)(C)O1 [CBK022763C] | 107%
Cc1nn(CC(=O)N(C(C)C)C(C)C)c(=O)c2cc3occc3n12 [CBK283655] | 98.4%
COCCCNC(=O)Cn1cnc2sc(C)cc2c1=O [CBK071899] | 102%
O=C(Nc1nc2ccc(Br)cc2s1)C1CC2CCC1C2 (stereo not shown) [CBK026397] | 88.8%
Cc1ccc(-n2c(O)nnc2-c2ccc(Cl)c(Cl)c2)cc1 [CBK074887] | 94.5%
CCn1cc(C(=O)O)c(=O)c2cc(F)c(N3CCN(S(=O)(=O)c4ccc(C)cc4)CC3)cc21 [CBK265122] | 95.1%
Cc1cccc(C)c1NC(=O)CSCC(=O)Nc1ccc2ccccc2c1 [CBK263274] | 94.2%
CCNC(=O)NC(=O)C1CCN(CCc2ccc(O)c(OC)c2)CC1 [CBK035184] | 102%
COc1ccc(Cc2nnc(SCC(=O)Nc3ccc(Br)c(C)c3)n2C)cc1 [CBK265816] | 83.9%
CCN(CC)CC(O)Cn1ccc(-c2cccs2)n1 (stereo not shown) [CBK005967] | 88.7%
Cc1ccc(NC(=O)CN2C(=O)N/C(=C\c3cc(Br)cc(Cl)c3O)C2=O)cc1 [CBK265018] | 98.7%
O=C(CC(C(=O)O)n1cnc([N+](=O)[O-])n1)c1ccc(Br)cc1 (stereo not shown) [CBK267524] | 89%
COc1ccc(Br)cc1CNCc1ccc(C(=O)O)cc1 [CBK269449C] | 96.2%
COc1ccc(C(=O)Nc2nc3c(C)cccc3s2)c(OC)c1 [CBK287301] | 82.6%
N#Cc1c(CN2CCCC(c3noc(C4CC4)n3)C2)cn2ccccc12 (stereo not shown) [CBK305332] | 98.7%
CCOC(=O)[C@@]12CC=CCN(C(=O)c3ccco3)[C@@H]1CCC2 [CBK284574] | 104%

SMILES | viability at 28.5 h, 10 µM
Cc1ncc([N+](=O)[O-])n1CCOC(=O)NC(N1CCOCC1)C(Cl)(Cl)Cl (stereo not shown) [CBK261299] | 103%
COc1cc(CNc2nn[nH]n2)ccc1OCc1ccc(F)cc1Cl [CBK269536] | 90.6%
Cc1ccc(CNC(=O)CCC(=O)O)cc1 [CBK058951] | 120%
Cn1c(=O)c(C(N)=O)c(O)c2ccccc21 [CBK027440] | 78.6%
O=C(Nc1ccc(-c2noc(COc3ccc(Br)cc3)n2)cc1)c1ccc2c(c1)OCO2 [CBK266692] | 97.2%
CCOc1cccc(C(=O)NC(=S)Nc2nc(C)c(C(=O)OC)s2)c1 [CBK092056] | 93.6%
COC(=O)c1ccc(Oc2nc(OC)cc(OC)n2)cc1 [CBK092221] | 113%
O=c1ccc2cccc(OCCO)c2o1 [CBK149730] | 105%
FC(F)(F)c1nc2ccccc2[nH]1 [CBK028224] | 84.5%
CC(=O)Nc1ccc(N2C(=O)CC(N3CCN(Cc4ccc5c(c4)OCO5)CC3)C2=O)cc1 (stereo not shown) [CBK265217] | 106%
COc1cc(/C=C/c2cc(C(F)(F)F)[nH]c(=O)n2)c(Cl)cc1O [CBK287936] | 80%
FC(F)C(F)(F)Oc1cccc(Nc2nccn3ccnc23)c1 [CBK066284] | 91.6%
Cc1cnc(CNC(=O)Cn2nnc(-c3ccc(CN4CCC(C)CC4)cc3)n2)cn1 [CBK137067C] | 101%
COc1ccc(F)cc1-c1ccc(S(=O)(=O)Nc2nc(CC(=O)N3CCOCC3)cs2)cc1 [CBK200031] | 88%
CCc1cccc(NC(=O)NCCC2=CCCCC2)c1 [CBK045009] | 108%
COc1nc(N)nc2c1ccn2C1CC(O)C(CO)O1 (stereo not shown) [CBK201177] | 98.6%
COc1cc(Cn2c(=O)[nH]c3ncc(-c4ccco4)nc32)cc(OC)c1OC [CBK064461] | 106%
CC(C)(C)OC(=O)NCCNCc1ccccc1C(F)(F)F [CBK056695] | 80%
CCCn1cnc2cc(NC(=O)Cn3cc(C(=O)NC4CCCCC4)ccc3=O)ccc21 [CBK286098] | 96.6%
O=C(CSc1nnc(Cc2cccc3ccccc23)n1-c1ccccc1)NC1CCCCC1 [CBK266052] | 102%
O=C(O)c1ccc(C(=O)Nc2cccc(NC(=O)C3CCCO3)c2)cc1 (stereo not shown) [CBK268613] | 105%
